Reference: article PMC10451018 (Protein Science : A Publication of the Protein Society, 2023)

Tests used:
[1] = molecular target: T1, Azorhizobium caulinodans malic enzyme, AcME (Azorhizobium caulinodans, UniProt A8IFW0); assay: spectrophotometric NADH formation at […] nm; format: biochemical; conditions: L-malate as co-substrate
T1 sequence (A8IFW0 1-759): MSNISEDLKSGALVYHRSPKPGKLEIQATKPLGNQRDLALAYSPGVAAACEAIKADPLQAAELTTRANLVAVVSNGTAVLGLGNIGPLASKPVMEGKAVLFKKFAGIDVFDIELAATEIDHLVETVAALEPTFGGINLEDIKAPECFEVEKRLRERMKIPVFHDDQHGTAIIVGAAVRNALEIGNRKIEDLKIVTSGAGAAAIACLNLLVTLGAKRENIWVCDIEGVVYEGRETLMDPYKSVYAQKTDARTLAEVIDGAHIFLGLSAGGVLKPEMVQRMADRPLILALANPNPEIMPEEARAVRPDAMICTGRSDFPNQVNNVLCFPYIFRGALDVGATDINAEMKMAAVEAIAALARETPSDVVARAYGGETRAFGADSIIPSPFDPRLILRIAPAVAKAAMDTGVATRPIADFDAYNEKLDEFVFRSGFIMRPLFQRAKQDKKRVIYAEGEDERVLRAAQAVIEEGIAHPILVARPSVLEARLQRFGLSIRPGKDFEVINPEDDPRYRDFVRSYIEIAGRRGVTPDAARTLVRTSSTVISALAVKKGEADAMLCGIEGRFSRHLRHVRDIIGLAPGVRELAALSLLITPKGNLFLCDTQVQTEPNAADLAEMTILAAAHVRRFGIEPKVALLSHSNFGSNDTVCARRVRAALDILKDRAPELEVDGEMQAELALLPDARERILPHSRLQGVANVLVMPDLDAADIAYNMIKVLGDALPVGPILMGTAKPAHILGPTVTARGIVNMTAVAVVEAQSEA

[2] = molecular target: T2, Aeropyrum pernix malate dehydrogenase, ApMDH (Aeropyrum pernix, UniProt Q9YEA1); assay: spectrophotometric NADH formation at […] nm; format: biochemical; conditions: L-malate as co-substrate
T2 sequence (Q9YEA1 1-308): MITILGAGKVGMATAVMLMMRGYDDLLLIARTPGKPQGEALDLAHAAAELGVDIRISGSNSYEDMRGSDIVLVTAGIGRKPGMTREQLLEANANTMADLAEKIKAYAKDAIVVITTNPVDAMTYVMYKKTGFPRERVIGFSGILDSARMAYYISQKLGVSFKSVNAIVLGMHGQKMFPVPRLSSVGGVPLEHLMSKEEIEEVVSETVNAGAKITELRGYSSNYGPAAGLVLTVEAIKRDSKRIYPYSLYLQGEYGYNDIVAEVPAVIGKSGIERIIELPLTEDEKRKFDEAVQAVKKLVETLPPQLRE

NC(=O)c1ccc[n+]([C@@H]2O[C@H](COP(=O)(O)OP(=O)(O)OC[C@H]3O[C@@H](n4cnc5c(N)ncnc54)[C@H](O)[C@@H]3O)[C@@H](O)[C@H]2O)c1 [NAD^+]
spectrophotometric NADH formation at 340 nm [1]: oxidation of L‐malate was accompanied by reduction of NAD^+ to NADH | spectrophotometric NADH formation at 340 nm [2]: oxidation of L‐malate was accompanied by reduction of NAD^+ to NADH
